Data on 1 compound can be found in patent publication US20250161238A1, “NMDAR Antagonists Prevent Ageing and Aging-Associated Conditions and Diseases Through Increasing 20S Proteasome Activity” (priority 2022, published 2025).

For data set [1] the following is noted: mice, 30 mg/kg dose; cited from earlier work.
Data set [2] relates to mice. The data set can be described thus: Open Field Maze (OFM) tests in aged mice. The data set is classed as in vivo. The text has this: Another test showing locomotor activity in mice is Open Field Maze (OFM). The OFM is one of the most widely used platforms which allow the researcher to measure behaviors ranging from overall locomotor activity to anxiety-related emotional behaviors. The first and most important specific parameter to measure in the OFM is total ambulatory distance.
(§1) The experimental protocols were approved by the Ethics Committee of Ankara University, Faculty of Medicine, Medical Sciences Experimental Research and Application Center (Date: Dec. 11, 2019 and Decision number: 2019-22-189). Adult (12-mounts-old) C57BL/6 mice (5 for each group) were used. The mice were housed at the Experimental Animal Research Laboratory of Ankara University Faculty of Medicine. Food and water were given without restriction. The ambient temperature was kept at 21±2° C., and locomotor activity tests were performed at this temperature. The animals were housed in a room with a 12-hour light/dark cycle. The procedures in the study were performed in accordance with the Ankara University Animal Care Committee according to international guidelines. Memantine (Sigma-Aldrich) was administered orally at 3 mg/Kg/per day with drinking water of one-year-old mice. Tests related to locomotor activities of the mice were recorded and available.
Open Field Test described firstly Hall for “emotionality” (Hall, 1934). Open Field test is used for anxiety-like behavior (ALB) and locomotor activity. We conducted the test in a hypethral box, which was made of 62×68 cm blueboard. The base of the box was divided into 20 equal rectangles. Animals had placed in the central region of Open Field Test. The first 5 min of the record was used for the analysis of behavioral parameters such as total distance traveled (horizontal locomotor activity), total rearing number (vertical locomotor activity), central zone time (ALB), Central zone Latency (the time of first return to the central region: ALB), central zone entrance (ALB), unsupported rearing (vertical locomotor activity without touch test wall and exploratory behavior, sensitive for ALB), central escape latency (first escape time from central zone: ALB) (Çalιşkan et al, 2019, Çalιşkan et al, 2020).

Data set [3] has as its system mice. Kind of data set: Kondziela's inverted screen test in aged mice. The data set is classed as in vivo. The note with it: mice at 22 months.
From the text: Kondziela's inverted screen test is one of tests which examine the muscle strength using all four limbs. Four limb-hanging test which is the Kondziella's inverted screen test represents a method to assess muscle strength using all four limbs grip and to determine the general condition during time. […] As a result, the test can provide important information about age-related neuromuscular decline.
as §1
Inverted screen test described firstly Kondizela for muscle strength (Kondizela, 1964). The mouse was put on a center of the rectangular mesh screen (52 cm×32 cm) and the screen was rotated 180° over 2 seconds. The screen was held steadily 40-50 cm above a sawdust surface. Holding time were recorded for a maximum of 5 minutes. The inverted screen was scored previously by Deacon (Falling between 1-10 sec=1 Falling between 11-25 seconds=2 Falling between 26-60 seconds=3 Falling between 61-90 seconds=4 Falling after 90 seconds=5) (Deacon, 2013). According to previous studies, parameters such as Total mobility time % (Gleitz et al, 2017), the latency of falling time, and four limbs griping time (Roemers et al, 2019) were analyzed.

The conditions of data set [4]: humans, 20 mg per day; cited from earlier work.
Data set [5] concerns C. elegans. Kind of data set: NADP+ and NADPH+ amount in C. elegans. The data set is classed as in vivo. The note with it: 19th day. From the text:
Therefore, the amount of NADP+ and NADPH+ were investigated in C. elagans.

The target in data set [6] is T1, acid beta-glucosidase (GCase) (Mus musculus, UniProt P17439).
T1 construct: host or cells: mice (in vivo), US 2017/0273917 A1 and Klein et al. 2016
T1 sequence (P17439 20-515): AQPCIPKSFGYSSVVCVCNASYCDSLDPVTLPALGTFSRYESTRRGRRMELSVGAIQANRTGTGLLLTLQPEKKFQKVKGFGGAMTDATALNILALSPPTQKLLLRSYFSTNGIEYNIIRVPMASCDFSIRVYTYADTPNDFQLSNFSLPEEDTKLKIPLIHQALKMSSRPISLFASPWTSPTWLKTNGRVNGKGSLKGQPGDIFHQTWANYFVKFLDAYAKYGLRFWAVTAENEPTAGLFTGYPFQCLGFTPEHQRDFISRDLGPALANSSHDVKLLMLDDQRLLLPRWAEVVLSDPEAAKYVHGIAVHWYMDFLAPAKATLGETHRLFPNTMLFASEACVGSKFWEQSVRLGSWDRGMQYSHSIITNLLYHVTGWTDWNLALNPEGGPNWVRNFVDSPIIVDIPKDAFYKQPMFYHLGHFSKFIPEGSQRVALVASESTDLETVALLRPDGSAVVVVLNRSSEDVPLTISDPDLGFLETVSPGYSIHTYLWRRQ
The note with it: in vivo; cited from earlier work.

For data set [7], the system named is mice. Kind of data set: Weight test (forelimb grip) in aged mice. Format: in vivo. The note with it: mice at 22 months. From the text: Another grip test that measures muscle strength more finely is forelimb grip strength test. Many biomarkers related to aging have been identified in human. Importantly, the grip tests performed on humans has been defined as a highly predicitive indicator that can show disabilities, diseases and deaths that may occur due to aging (Iconaru et al., 2018; Sousa-Santos and Amaral, 2017) In this test a mouse is held by the middle base of the tail and lower it to allow it to grasp the weight which is a ball of tangled fine gauge stainless steel wire. This test is carried out by increasing the weight, investigating the weight that the mouse can carry or keeping the weight constant and how long the mouse can carry the weight.
The experimental protocols were approved by the Ethics Committee of Ankara University, Faculty of Medicine, Medical Sciences Experimental Research and Application Center (Date: Dec. 11, 2019 and Decision number: 2019-22-189). Adult (12-mounts-old) C57BL/6 mice (5 for each group) were used. The mice were housed at the Experimental Animal Research Laboratory of Ankara University Faculty of Medicine. […] Tests related to locomotor activities of the mice were recorded and available.
Weight test use to measure muscle strength (Deacon, 2013). […] The experiment was recorded by camera for a maximum of 5 minutes. Total griping time was evaluated.

For the compound `CC12CC3CC(C)(C1)CC(N)(C3)C2` [memantine, 3,5-dimethyladamantan-1-amine], in data set [1], the tolerability entry is reported as “well tolerated”. Also, the Central zone time in data set [2] (5-minute movements) was 4 times. In addition, the Central latency time entry in data set [2] (P 0.07) is reported as “differed at least twice”. Also, the Central zone entrance result in data set [2] (P 0.08) is on record as “differed at least twice”. Moreover, the Central escape latency result in data set [2] (P 0.4) is recorded as “differed at least twice”. Moreover, the total ambulatory distance result in data set [2] (five minute recordings) is recorded as “nearly two times more”. For the same compound, in data set [2] (mouse, in vivo), the Peripheral zone time result is listed as “mice not receiving memantine remained in the peripheral regions more” and the total rearing activity result was “twice as much rearing activity”. Moreover, in data set [3], the “four fingers grip time” value is “more than two times”; the mobility time result was “more than twice as much”; the “time in the inverted frame (latency of falling, holding time)” value is recorded as “twice as long”. For the same compound, the serum levels in data set [4] is 500 to 1000 nM. For the same compound, the “NADP+ compared to C. elegans without treatment” value in data set [5] is given as 2 folds. For the same compound, the “Gcase inhibition and level of Gcase substrates GlcCer and GSLs” value in data set [6] is on record as “no effect”. Further, the “forelimb grip: time holding a fixed weight” value in data set [7] is listed as “four times longer”.
